Consider 14 molecules from patent US12564638B2 (SHANGHAITECH UNIVERSITY, priority 2019, dated 2026).

pIC50: −log10 of the molar value. Like-named read-outs stand apart in the source and are kept apart here.

Common to all, as to type: cell-based
Assay [1] concerns HCC827 cells (EGFR Exon19 del, non-small cell lung cancer cells). Nature of the assay: Cell viability assay (WST/CCK8), HCC827 cells. Particulars: Homo sapiens, HCC827, 72 h, read-out: IC50 (half inhibitory concentration). The gist of the method: (§1)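 Cells seeded at 3 000/well in RPMI1640 complete medium, dosed next day with compounds (top 10 μM, 3-fold, 10 points) for 72 h. Viability read with WST (CCK8) reagent; DMSO as negative control, EGFR TKIs as positive controls; IC50 determined.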

Assay [2] deals with PC9 cells (EGFR Exon 19 del, non-small cell lung cancer cells). Nature of the assay: Cell viability assay (WST/CCK8), PC9 cells. The note with it: Homo sapiens, read-out: IC50 (half inhibitory concentration). The gist of the method: as §1
Assay [3] deals with BT474 cells (HER2 positive breast cancer cells). Kind of assay: Cell viability assay (CCK8), BT474 cells. Particulars: Homo sapiens, BT-474, Table 10, BT474, 72 hours, read-out: IC50 (half inhibitory concentration). From the text:
(§2) The cell lines with abnormal EGFR expression used are as follows: • HCC827 cells (EGFR Exon19 del, non-small cell lung cancer cells); • PC9 cells (EGFR Exon 19 del, non-small cell lung cancer cells); • PC9BracA1 (EGFR Exon 19 del+T790M, non-small cell lung cancer cells) • H1975 (EGFR Exon T790M+L858R mutation, non-small cell lung cancer cell line) • BT474 cells (HER2 positive breast cancer cells)
(§3) All of the half inhibitory concentrations (IC50) of these compounds of the present invention were determined with WST reagent from Fuyuan Biotec Company. The specific experiment procedures are as follows: Cancer cells were planted in 96-well-plate at the density of 3 000 cells per well with 100 μL RPMI1640 completed culture medium. In the next day, compounds with indicated concentrations were added to the cells, DMSO was used as the negative control and the EGFR TKIs were used to treat cells as the positive groups. After 72 hours drug treatment, cell viability was measured by using the WST reagent following the instructions. The growth inhibition curve of the compounds on cells were plotted by Prism GraphPad, and the compounds IC50 calculated from it.
The cell viability assays were taken to determine the anti-tumor activity of these indicated compounds in BT474 cells, which can overexpress HER2 protein. The cells were treated with the gradient concentration of these compounds (the maximum concentration: 10 μM; 3-fold dilution ratio, 10 concentration gradients) for 72 hours and then incubated with the CCK8 reagent to determine the cell viability.

Assay [4] has as its system H1975 (EGFR T790M+L858R mutation, non-small cell lung cancer cell line). Nature of the assay: Cell viability assay (WST/CCK8), H1975 cells. The note with it: Homo sapiens, NCI-H1975, 72 hours, WST, read-out: IC50 (half inhibitory concentration).
Text: as §2
as §3, with “instructions.” for “instructions. The growth inhibition curve of the compounds on cells were plotted by Prism GraphPad, and the compounds IC50 calculated from it.”

Where [5] appears, read: Table 6, canertinib-based compounds, HCC827 (Exon19 Del), 72 hours, WST.
[6] abbreviates: PC-9, Table 6, canertinib-based compounds, PC9 (Exon19 Del), 72 hours, WST.
The mark [7] stands for this setting: HCC827 (Exon19 Del), 72 hours, WST (CCK8).
Setting [8] is: PC-9, PC9 (Exon19 Del), 72 hours, WST (CCK8).
Where [9] appears, read: Table 8, osimertinib-based compounds, HCC827, 72 hours, WST.
[10] abbreviates: Table 8, osimertinib-based compounds, H1975.

As for `C=CC(=O)Nc1cc2c(Nc3ccc(F)c(Cl)c3)ncnc2cc1OCCCN1CCN(C(=O)CCc2ccc(CCC(=O)N[C@H](C(=O)N3C[C@H](O)C[C@H]3C(=O)NCc3ccc(-c4scnc4C)cc3)C(C)(C)C)cc2)CC1` [SIAIS249102, (2S,4R)-1-((S)-2-(3-(4-(3-(4-(3-((6-acrylamido-4-((3-chloro-4-fluorophenyl)amino)quinazolin-7-yl)oxy)propyl)piperazin-1-yl)-3-oxopropyl)phenyl)propanamido)-3,3-dimethylbutanoyl)-4-hydroxy-N-(4-(4-methylthiazol-5-yl)benzyl)pyrrolidine-2-carboxamide], the pIC50 in assay [1] (setting [5]) is 7.60; in assay [2] (setting [6]) it was 7.80; in assay [3], 8.42.

For the molecule `C=CC(=O)Nc1cc2c(Nc3ccc(F)c(Cl)c3)ncnc2cc1OCCCN1CCOCC1` [canertinib, reference compound], the pIC50 was 9.15 in assay [1]; 9.05 in assay [2] (PC-9, 72 h); 7.76 in assay [3].

As for `C=CC(=O)Nc1cc2c(Nc3ccc(F)c(Cl)c3)ncnc2cc1OCCCN1CCN(C(=O)CCCC(=O)N[C@H](C(=O)N2C[C@H](O)C[C@H]2C(=O)NCc2ccc(-c3scnc3C)cc2)C(C)(C)C)CC1` [SIAIS262128, (2S,4R)-1-((S)-2-(5-(4-(3-((6-acrylamido-4-((3-chloro-4-fluorophenyl)amino)quinazolin-7-yl)oxy)propyl)piperazin-1-yl)-5-oxopentanamido)-3,3-dimethylbutanoyl)-4-hydroxy-N-(4-(4-methylthiazol-5-yl)benzyl)pyrrolidine-2-carboxamide], the pIC50 is 7.84 in assay [1] (setting [5]), 7.80 in assay [2] (setting [6]) and 7.38 in assay [3].

Consider `COc1cc2ncnc(Nc3ccc(F)c(Cl)c3)c2cc1NC(=O)/C=C/CN1CCC(N2CCN(C(=O)CSc3cccc4c3CN(C3CCC(=O)NC3=O)C4=O)CC2)CC1` (centres unmarked) [SIAIS262034, (E)-N-(4-((3-chloro-4-fluorophenyl)amino)-7-methoxyquinazolin-6-yl)-4-(4-(4-(2-((2-(2,6-dioxopiperidin-3-yl)-1-oxoisoindolin-4-yl)thio)acetyl)piperazin-1-yl)piperidin-1-yl)but-2-enamide], for which the pIC50 in assay [1] (setting [7]) was 8.44; in assay [2] (setting [8]), 7.95; in assay [4] (H1975 (L858R + T790M)) it was 6.08.

Turning to `C=CC(=O)Nc1cc2c(Nc3ccc(F)c(Cl)c3)ncnc2cc1OCCCN1CCN(C(=O)CSc2cccc3c2CN(C2CCC(=O)NC2=O)C3=O)CC1` (centres unmarked) [SIAIS262121, N-(4-((3-chloro-4-fluorophenyl)amino)-7-(3-(4-(2-((2-(2,6-dioxopiperidin-3-yl)-1-oxoisoindolin-4-yl)thio)acetyl)piperazin-1-yl)propoxy)quinazolin-6-yl)acrylamide], the pIC50 is 8.03 in assay [1] (setting [5]), 7.36 in assay [2] (setting [6]) and 8.28 in assay [3].

With `COc1cc2ncnc(Nc3ccc(F)c(Cl)c3)c2cc1NC(=O)/C=C/CN1CCC(N2CCN(C(=O)CCCCCCSc3cccc4c3C(=O)N(C3CCC(=O)NC3=O)C4=O)CC2)CC1` (centres unmarked) [SIAIS262033, (E)-N-(4-((3-chloro-4-fluorophenyl)amino)-7-methoxyquinazolin-6-yl)-4-(4-(4-(7-((2-(2,6-dioxopiperidin-3-yl)-1,3-dioxoisoindolin-4-yl)thio)heptanoyl)piperazin-1-yl)piperidin-1-yl)but-2-enamide], the pIC50 is about 9.00 in assay [1] (setting [7]), 8.42 in assay [2] (setting [8]) and 9.15 in assay [3].

Consider `C=CC(=O)Nc1cc(Nc2nccc(-c3cn(C)c4ccccc34)n2)c(OC)cc1N(C)CCN(C)C(=O)CCCCCCSc1cccc2c1CN(C1CCC(=O)NC1=O)C2=O` (centres unmarked) [SIAIS337057, N-(2-((2-acrylamido-5-methoxy-4-((4-(1-methyl-1H-indol-3-yl)pyrimidin-2-yl)amino)phenyl)(methyl)amino)ethyl)-7-((2-(2,6-dioxopiperidin-3-yl)-1-oxoisoindolin-4-yl)thio)-N-methylheptanamide], for which the pIC50 in assay [1] (setting [9]) is 7.32; in assay [4] (setting [10]) it was 7.68.

Regarding `COc1cc2ncnc(Nc3ccc(F)c(Cl)c3)c2cc1NC(=O)/C=C/CN1CCC(NC(=O)CNc2cccc3c2C(=O)N(C2CCC(=O)NC2=O)C3=O)CC1` (centres unmarked) [SIAIS249081, (E)-N-(4-((3-chloro-4-fluorophenyl)amino)-7-methoxyquinazolin-6-yl)-4-(4-(2-((2-(2,6-dioxopiperidin-3-yl)-1,3-dioxoisoindolin-4-yl)amino)acetamido)piperidin-1-yl)but-2-enamide], the pIC50 in assay [1] (setting [7]) is 7.92; in assay [2] (setting [8]) it was 7.49; in assay [4] (H1975 (L858R + T790M)) it was 6.94.

For the molecule `COc1cc2ncnc(Nc3ccc(F)c(Cl)c3)c2cc1NC(=O)/C=C/CN1CCC(NC(=O)CCCCSc2cccc3c2CN(C2CCC(=O)NC2=O)C3=O)CC1` (centres unmarked) [SIAIS262113, (E)-N-(1-(4-((4-((3-chloro-4-fluorophenyl)amino)-7-methoxyquinazolin-6-yl)amino)-4-oxobut-2-en-1-yl)piperidin-4-yl)-5-((2-(2,6-dioxopiperidin-3-yl)-1-oxoisoindolin-4-yl)thio)pentanamide], the figures for the pIC50 in assay [1] (setting [7]), in assay [2] (setting [8]) and in assay [3] were 7.31, 8.41 and 7.17, respectively.

For the molecule `C=CC(=O)Nc1cc(Nc2nccc(-c3cn(C)c4ccccc34)n2)c(OC)cc1N(C)CCN(C)C(=O)CCCCCCCCCSc1cccc2c1CN(C1CCC(=O)NC1=O)C2=O` (centres unmarked) [SIAIS337060, N-(2-((2-acrylamido-5-methoxy-4-((4-(1-methyl-1H-indol-3-yl)pyrimidin-2-yl)amino)phenyl)(methyl)amino)ethyl)-10-((2-(2,6-dioxopiperidin-3-yl)-1-oxoisoindolin-4-yl)thio)-N-methyldecanamide], the pIC50 in assay [1] (setting [9]) is 6.92; in assay [4] (setting [10]), 6.77.

Regarding `COc1cc2ncnc(Nc3ccc(F)c(Cl)c3)c2cc1NC(=O)/C=C/CN1CCC(NCCCCC#Cc2cccc3c2CN(C2CCC(=O)NC2=O)C3=O)CC1` (centres unmarked) [SIAIS262117, (E)-N-(4-((3-chloro-4-fluorophenyl)amino)-7-methoxyquinazolin-6-yl)-4-(4-((6-(2-(2,6-dioxopiperidin-3-yl)-1-oxoisoindolin-4-yl)hex-5-yn-1-yl)amino)piperidin-1-yl)but-2-enamide], the pIC50 in assay [1] (setting [7]) is 7.80; in assay [2] (setting [8]), 7.51; in assay [3] it was 6.32.

In the case of `COc1cc2ncnc(Nc3ccc(F)c(Cl)c3)c2cc1NC(=O)/C=C/CN1CCC(N)CC1` [SIAIS249077, (E)-4-(4-aminopiperidin-1-yl)-N-(4-((3-chloro-4-fluorophenyl)amino)-7-methoxyquinazolin-6-yl)but-2-enamide], the pIC50 in assay [1] (setting [7]) was 7.70; in assay [2] (setting [8]) it was 9.10; in assay [3] it was 7.91.

On to `C=CC(=O)N1CCC(Oc2cc3c(Nc4ccc(Cl)c(Cl)c4F)ncnc3cc2OC)CC1` [poziotinib, reference compound], for which the pIC50 in assay [1] (setting [7]) is 9.30; in assay [1] (Table 3, poziotinib-based compounds, HCC827 (Exon19 Del), 72 hours, WST (CCK8)), 9.30; in assay [2] (PC-9, Table 3, poziotinib-based compounds, PC9 (Exon 19 Del), 72 hours, WST (CCK8)), over 10.00; in assay [3], over 10.00.

For the molecule `COc1cc2ncnc(Nc3ccc(F)c(Cl)c3)c2cc1NC(=O)/C=C/CN1CCC(NCCCC#Cc2cccc3c2CN(C2CCC(=O)NC2=O)C3=O)CC1` (centres unmarked) [SIAIS262116, (E)-N-(4-((3-chloro-4-fluorophenyl)amino)-7-methoxyquinazolin-6-yl)-4-(4-((5-(2-(2,6-dioxopiperidin-3-yl)-1-oxoisoindolin-4-yl)pent-4-yn-1-yl)amino)piperidin-1-yl)but-2-enamide], the pIC50 in assay [1] (setting [7]) was 7.96; in assay [2] (setting [8]), 8.48; in assay [3], 7.08.
